GI50 and TGI data for 16 molecules are collected here from PubChem BioAssay (NCI).

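Values below derive from 48-hour exposures of cells grown in 96-well plates, with endpoints linearly interpolated between the two concentrations bracketing the appropriate inhibition level. GI50 is the concentration that inhibits growth by half. TGI: total growth inhibition.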 Where only a bound is given, the exact number is not on record here.

Test systems include 786-0 renal; A498 renal; A549 NSCLC; ACHN renal; BT-549 breast; CAKI-1 renal; CCRF-CEM leukemia; COLO 205 colon; DU-145 prostate; EKVX NSCLC; HCC-2998 colon; HCT-116 colon; HCT-15 colon; HL-60(TB) leukemia; HOP-62 NSCLC; HOP-92 NSCLC; HS 578T breast; HT29 colon; IGROV1 ovarian; K-562 leukemia; KM12 colon; M14 melanoma; MALME-3M melanoma; MCF7 breast; MDA-MB-231 breast; MDA-MB-435; MDA-MB-468 breast; MOLT-4 leukemia; NCI-H226 lung; NCI-H23 lung; NCI-H460 lung; NCI-H522 lung; OVCAR-3 ovarian; OVCAR-4 ovarian; OVCAR-5 ovarian; OVCAR-8 ovarian; PC-3 prostate; RPMI-8226 leukemia; RXF 393 renal; SF-268 CNS; SF-295 CNS; SF-539 CNS; SK-MEL-2 melanoma; SK-MEL-28 melanoma; SK-MEL-5 melanoma; SK-OV-3 ovarian; SN12C renal; SNB-19 CNS; SNB-75 CNS; SR leukemia; SW-620 colon; T-47D breast; TK-10 renal; U251 CNS; UACC-257 melanoma; UACC-62 melanoma; UO-31 renal.

What all share (assay): NCI anticancer screen, dose series, 48 h

For `O=c1nc(-c2ccccc2)cc(-c2cc3ccccc3nc2Cl)[nH]1`, the GI50 is 3.39 µM in the assay on 786-0 renal; 21.2 µM with A498 renal; 11.6 µM with A549 NSCLC; 5.59 µM in the assay with ACHN renal; 2.61 µM with BT-549 breast; 10.1 µM in the assay on CAKI-1 renal. In addition, the GI50 is 2.75 µM in the assay with CCRF-CEM leukemia; 8.33 µM with COLO 205 colon; 7.23 µM in the assay on DU-145 prostate; 14.5 µM in the assay on EKVX NSCLC; 16.9 µM in the assay on HCC-2998 colon; 1.89 µM in the assay on HCT-116 colon. The GI50 in the assay with HCT-15 colon was 2.12 µM; in the assay on HL-60(TB) leukemia, 2.27 µM; in the assay on HOP-62 NSCLC, 5.23 µM; with HOP-92 NSCLC, 4.21 µM; in the assay on HS 578T breast, 12.3 µM; with HT29 colon, 6.62 µM. The GI50 was 12.8 µM in the assay with IGROV1 ovarian; 2.71 µM in the assay with K-562 leukemia; 1.96 µM in the assay with KM12 colon; 12 µM in the assay on M14 melanoma; 12.4 µM with MALME-3M melanoma; 2.53 µM in the assay on MCF7 breast. For the same molecule, the GI50 in the assay on MDA-MB-231 breast was 6.12 µM; in the assay on MDA-MB-435, 6.96 µM; in the assay with MDA-MB-468 breast it was 4.24 µM; in the assay on MOLT-4 leukemia it was 3.07 µM; in the assay with NCI-H226 lung, 11.2 µM; in the assay on NCI-H23 lung, 10.7 µM. Further, the GI50 in the assay with NCI-H460 lung is 3 µM; with NCI-H522 lung, 8.4 µM; in the assay on OVCAR-3 ovarian, 3.38 µM; with OVCAR-4 ovarian, 17.8 µM; with OVCAR-5 ovarian it was 12.2 µM; with OVCAR-8 ovarian it was 3.71 µM. For the same molecule, the GI50 is 6.11 µM in the assay on PC-3 prostate; 2.2 µM with RPMI-8226 leukemia; 11.1 µM in the assay on RXF 393 renal; 4.97 µM in the assay with SF-268 CNS; 10.1 µM in the assay on SF-295 CNS; 2.05 µM in the assay on SF-539 CNS. In addition, the GI50 was 17.1 µM with SK-MEL-2 melanoma; 11.1 µM with SK-MEL-28 melanoma; 17.6 µM in the assay on SK-MEL-5 melanoma; 21.7 µM in the assay on SK-OV-3 ovarian; 11.2 µM in the assay with SN12C renal; 3.92 µM in the assay with SNB-19 CNS. For the same molecule, the GI50 with SNB-75 CNS was 3.82 µM; in the assay with SR leukemia, 0.549 µM; with SW-620 colon, 1.93 µM; in the assay on T-47D breast it was 21.4 µM; with TK-10 renal, 16.4 µM; in the assay on U251 CNS it was 1.62 µM. For the same molecule, the results for the GI50 in the assay with UACC-257 melanoma, in the assay with UACC-62 melanoma and in the assay with UO-31 renal were 17 µM, 7.98 µM and 3.98 µM, respectively. Besides, the TGI stood at 13.3 µM in the assay with 786-0 renal; 43.5 µM in the assay on A498 renal; 80.3 µM in the assay with A549 NSCLC; 18.2 µM in the assay on ACHN renal; 13.3 µM with BT-549 breast; 23 µM in the assay on CAKI-1 renal. Moreover, the TGI came out at 9.32 µM in the assay on CCRF-CEM leukemia; 25.4 µM with COLO 205 colon; 20.3 µM in the assay with DU-145 prostate; 36.8 µM with EKVX NSCLC; 33.7 µM in the assay on HCC-2998 colon; 3.9 µM with HCT-116 colon. In addition, the TGI in the assay with HCT-15 colon was determined as 5.22 µM; in the assay with HL-60(TB) leukemia, 6.67 µM; in the assay on HOP-62 NSCLC, 20.6 µM; in the assay with HOP-92 NSCLC it was 22.4 µM; in the assay with HS 578T breast, 60.2 µM; in the assay with HT29 colon, 24.8 µM. For the same molecule, the TGI in the assay on IGROV1 ovarian came to 27.9 µM; in the assay on K-562 leukemia, 9.19 µM; in the assay with KM12 colon it was 4.39 µM; in the assay with M14 melanoma, 31.6 µM; with MALME-3M melanoma, 26.4 µM; in the assay on MCF7 breast, 14.8 µM. For the same molecule, the TGI in the assay with MDA-MB-231 breast was 19.3 µM; in the assay with MDA-MB-435 it was 22.3 µM; in the assay with MDA-MB-468 breast it was 19.5 µM; with MOLT-4 leukemia, 12.4 µM; with NCI-H226 lung, 28.1 µM; in the assay with NCI-H23 lung it was 39.6 µM. The TGI turned out to be 10.3 µM with NCI-H460 lung; 22.3 µM with NCI-H522 lung; 12.8 µM with OVCAR-3 ovarian; 61.4 µM with OVCAR-4 ovarian; 25.3 µM with OVCAR-5 ovarian; 18.6 µM in the assay with OVCAR-8 ovarian. The TGI is 26.4 µM with PC-3 prostate; 7.19 µM in the assay with RPMI-8226 leukemia; 25.1 µM in the assay on RXF 393 renal; 18.6 µM in the assay on SF-268 CNS; 24.1 µM with SF-295 CNS; 5.1 µM in the assay on SF-539 CNS. For the same molecule, the TGI with SK-MEL-2 melanoma is 34 µM; in the assay with SK-MEL-28 melanoma, 23.3 µM; in the assay with SK-MEL-5 melanoma it was 33.4 µM; in the assay with SK-OV-3 ovarian, over 100 µM; in the assay on SN12C renal, 23.9 µM; in the assay on SNB-19 CNS, 15.8 µM. The TGI with SNB-75 CNS was 20.6 µM; in the assay with SR leukemia it was 4.86 µM; in the assay with SW-620 colon, 3.91 µM; in the assay with T-47D breast, over 100 µM; in the assay on TK-10 renal it was 41.5 µM; with U251 CNS, 4.25 µM. Moreover, the figures for the TGI in the assay on UACC-257 melanoma, in the assay with UACC-62 melanoma and in the assay with UO-31 renal were 36.9 µM, 20.9 µM and 18 µM, respectively.

As to `CC(=O)O[C@H](C[C@H](C(C)C)N(C)C(=O)[C@@H](NC(=O)[C@H]1CCCCN1C)C(C)C)c1cccc(C(=O)N[C@@H](Cc2ccccc2)C[C@H](C)C(=O)O)n1`, in the assay on MDA-MB-468 breast, the GI50 is 0.00539 µM and the TGI amounted to 0.102 µM.

For `COc1cc(-c2cc3ncccc3c3[nH]c(=O)c4cccnc4c23)cc(OC)c1OC`, in the assay with MDA-MB-468 breast, the GI50 is 1.61 µM and the TGI is 96.1 µM.

Turning to `C[C@H](NC(=O)c1c(C(F)F)nn(C)c1Oc1cccc(C(F)(F)F)c1)c1ccc(C(=O)O)cc1`, in the assay on MDA-MB-468 breast, the GI50 was over 100 µM and the TGI was over 100 µM.

For `O=C(O)Cn1ccc2ccccc21`, in the assay with MDA-MB-468 breast, the GI50 is over 100 µM and the TGI was over 100 µM.

With `O=C1Nc2ccccc2/C1=C/c1cn(CC(O)Cn2cc(/C=C3\C(=O)Nc4ccccc43)c3ccccc32)c2ccccc12` (centres undefined), in the assay with MDA-MB-468 breast, the GI50 is 2.03 µM and the TGI amounted to 3.75 µM.

`CCOc1ccc(C(C)=O)cc1NC(=O)c1cccc(-c2nnn(CC)n2)c1`: in the assay with MDA-MB-468 breast, the GI50 was 0.557 µM and the TGI stood at 6.07 µM.

`NCCOc1ncccc1/C=C1\c2ccccc2-c2ccc([N+](=O)[O-])cc21`: in the assay on MDA-MB-468 breast, the GI50 is 0.0712 µM and the TGI stood at 0.351 µM.

For the molecule `COc1cc(NC(C)CCCNC(C)C)c2ncccc2c1OC` (centres undefined), in the assay on MDA-MB-468 breast, the GI50 is 25.6 µM and the TGI is over 100 µM.

`COc1ccc(-c2nsc3c2NC(=O)CC3c2cccc(Cl)c2)cc1` (centres undefined): in the assay with MDA-MB-468 breast, the GI50 was 0.735 µM and the TGI stood at 11 µM.

For `COc1cc2nc(-c3cccc4cccnc34)nc(NC3CCN(Cc4ccccc4)CC3)c2cc1OC`, in the assay with MDA-MB-468 breast, the GI50 is 1.43 µM and the TGI came out at 2.96 µM.

Take `CC/C(Cc1ccccc1)=C(/c1ccc(O)cc1)c1ccc(OCCN2CCCC2)cc1`: in the assay on MDA-MB-468 breast, the GI50 is 1.66 µM and the TGI was found to be 3.28 µM.

As for `Cn1cc(C2=C(c3ccccc3C(F)(F)F)C(=O)NC2=O)c2ccccc21`, in the assay with MDA-MB-468 breast, the GI50 is 11.6 µM and the TGI was over 25 µM.

Consider `COc1ccc(-c2nn3ncccc3c2-c2ccnc(Nc3ccc4c(c3)OCCO4)n2)cc1`, for which, in the assay with MDA-MB-468 breast, the GI50 is 4 µM and the TGI was over 21.1 µM.

Consider `CCN(CC)c1ccc(/C=N/NC(=O)CSc2nc3ccccc3c(=O)n2Cc2ccc(S(N)(=O)=O)cc2)c(O)c1`, for which, in the assay with MDA-MB-468 breast, the GI50 is 0.524 µM and the TGI came to 5.03 µM.

Regarding `CCCCN1C(=O)/C(=c2\sc3n(c2=O)C2C(NN=3)N(CC)C(=O)N2CC)c2ccccc21` (centres undefined), in the assay with MDA-MB-468 breast, the GI50 is 0.361 µM and the TGI is 2.39 µM.
